Assay results reported in patent US20030180260A1, “Immunotherapy or treating bacterial or viral infection at mucosal surfaces with probiotics, and compositions therefor” (priority 2000, published 2003).
Marks after values point to notes of the source that are not given here.

Tests used:
C albicans = experiment: Clearance of C. albicans in mice treated with NO synthase inhibitor; format: in vivo; details: ip daily for 3 days after infection; two mouse strains (H2d); FIG. 9
Method: To identify the immune parameters of protection, the levels of IFN-γ were determined at various times following infection with C. albicans. […] Since nitric oxide production is associated with host defence in parasitic infection, quantitation of NO was performed following infection in two mouse strains sharing the same H2d MHC haplotype. In this experiment mice were infected with C albicans and then followed by ip injection with an inhibitor of NO synthase, by injecting NG-monomethyl-L-arginine monoacetate (MNLA) daily for 3 days after which time the clearance rate of yeasts was determined.

Helicobacter pylori = experiment: Metronidazole therapy of H. pylori infection in mice pre-treated with probiotic; format: in vivo; details: for H. pylori colonisation: L acidophilus 1×10^9 orally 3 times a week for 2 weeks, Metronidazole 0.08 mg/animal for 1 week; for % eradication: compared with saline-treated control group
Method: H. pylori infected mice (5 per group) were treated with Lactobacillus acidophilus (1×10^9 per animal) by oral feeding 3 times a week for 2 weeks prior to treatment with Metronidazole (0.08 mg/animal) for 1 week.

Candida albicans = experiment: Resistance to oral C. albicans infection following feeding with probiotic bacteria; format: in vivo, DBA/2 mice; details: 5×10^9 intragastrically every 2 days for 2 weeks
Method: (§1) DBA/2 mice H2d male mice (n=3-5 per group) were fed intragastrically every 2 days for 2 weeks with 5×10^9 L. acidophilus in 0.2 mL PBS. One day after the last feed mice were challenged with 10^8 Candida albicans blastospores by swabbing the oral cavity using a fine-tip sterile swab. At various days after infection the number of C. albicans in the oral mucosa was determined. The oral cavity (cheek, tongue and soft palate) was completely swabbed using a fine-tipped cotton swab. The cotton swab was placed in 1 mL PBS and the yeast cells were resuspended by mixing in a vortex mixer before culture of serial 10-fold dilutions on Sabourand dextrose agar supplemented with chloramphenicol at 37° C. The results were expressed as CFU/mL (FIG. 5)

H influenzae = experiment: Clearance of non-typable H influenzae from the lungs of rats fed L acidophilus; format: in vivo, DA rats
Method: DA rats (200-250 gm, 8-10 weeks old, Animal Resource Centre, Perth, Wash.) were fed intragastrically L acidophilus in 0.75 mL PBS (2.5×10^10 per rat) or PBS alone every 2 days for 7 days at which time the rats were immuniised with formalin-killed H influenzae ([…]) administered intralumenally (see groups below). Rats continued to be fed every 2 days for 2 weeks and then boosted with 50 μL of formalin killed H influenzae (5×10^8 per rat) administered by the intratracheal route. After further feeding with L acidophilus for a further 7 days, the rats were challenged with 50 μL of live 5×10^8 H influenzae in the lung.
Immunisation Groups (5 Rats/Group):
2H influenzae (intralumenal)+H influenzae (intra-tracheal boost)
3 PBS (intralumenal)+L. acidophilus fed every 2 days
4H influenzae (intralumenal)+H influenzae (intratracheal boost)+L. acidophilus fed every 2 days
After 4 hrs post challenge, the rats were sacrificed and the levels of colonisation in the lung was examined in bronchial lavage (BAL) and lung homogenate (LH). The level of clearance was determined by a plating serial 10-fold dilutions of the lavage fluid or lung homogenate onto chocolate agar plates. The results were expressed as number of colony forming units (CFU.

IFN-γ [1] = experiment: IFN-γ production by OVA-stimulated spleen lymphocytes of mice fed L. acidophilus (ELISA); format: in vivo, C57/BI6 mice; details: fed intragastrically, OVA-sensitised; spleen lymphocytes stimulated with OVA 5 μg/mL for 4 days; FIG. 1B
Method: (§2) To determine whether probiotic bacteria down-regulate Th2 and up-regulate Th1 cytokine response, C57/BI6 mice were fed intragastrically using a feeding needle, various numbers of Lactobacillus acidophilus (obtained from University of New South Wales, School of Microbiology and Immunology Culture Collection, Sydney, Australia) on consecutive days for 2 weeks after which they were sensitised with 8 μg of ovalbumin (OVA) and aluminium hydroxide in 0.2 mL phosphate-buffered saline administered by peritoneal injection. The mice were further fed ten times with L. acidophilus every two days for two weeks before they were sacrificed. Lymphocytes were isolated by teasing spleens through a sieve, washed with PBS, and resuspended at 10×10^6 One mL aliquots of the cell suspension were dispensed into wells of a 24-well flat-bottomed microtitre plate and stimulated with OVA (5 μg/mL). After incubation for 4 days the supernatants were collected and assayed for IL-4 and IFN-γ production by standard ELISA techniques using IL-4 or IFN-γ monoclonal antibody pairs. Briefly, wells of a 24-well microtitre plate were coated with a capture anti-IL-4 antibody. […] The colour development was read at 450/620 nm in an ELISA plate reader. The level of IL-4 in unknown samples was quantitated by interpolation using a standard curve. […]

IL-4 = IL-4 production by OVA-stimulated spleen lymphocytes of mice fed L. acidophilus (ELISA); format: in vivo, C57/BI6 mice; details: fed intragastrically, OVA-sensitised; spleen lymphocytes stimulated with OVA 5 μg/mL for 4 days; FIG. 1A
Method: as §2

[2] = test system: H. pylori (Sydney strain 1); experiment: Clearance of pre-established H. pylori stomach infection in mice dosed with L. acidophilus; format: in vivo, C57BL/6 mice
Method: Two groups of 5 female C57BL/6 mice were infected with H. pylon (Sydney strain 1) by administration of approx. 10^9 live H. pylori on three consecutive days (days 1, 2 and 3) by gavage. On days 28, 30, 32, 35, 37 and 39 mice were dosed by gavage with live L. acidophilus (5×10^9 in 0.2 mL water) or water (control group).
Twenty-one days later ([…]) mice were killed by pentobarbitone overdose (administered intra-peritoneally) and their stomachs removed. The stomach was dissected into two equal halves and one half was placed in 1 mL of deionised water and homogenised. Serial 10-fold dilutions of stomach homogenate were plated out on chocolate agar plates containing fungizone, vancomycin, bacitracin and nalidixic acid. After incubation for 3 days at 37° C. under microaerophilic conditions, the colonies were counted and the total number of live H. pylori in the original stomach homogenate determined.

NO = experiment: Nitric oxide (NO) secretion in saliva after Candida albicans challenge (Griess reaction); format: in vivo, DBA/2 mice; details: oral 5×10^9 CFU, FIG. 2
Method: as §1, with “(n=3 to 5 per group) were fed Lactobacillus acidophilus and then challenged with Candida albicans as described in Example 3 below. At various times following oral infusion, saliva was collected after injection with pilocarpine to stimulate saliva flow. The concentration of NO in saliva was determined by the Griess reaction according to the method by Gree et al (1982) Anal. Biochem 126:131-138. DBA/2 mice […]” for “H2d”

IFN-γ [3] = experiment: IFN-γ in saliva and cervical lymph node cells after C. albicans challenge (ELISA); format: in vivo, DBA/2 mice
Method: A further study on responses to Candida albicans infection was conducted in the model described in Example 3.
Candida antigen was prepared from freshly cultured Candida albicans by sonication in a MSE Soniprep. The sonicate was centrifuged for 10 min at 2000 g after which time the supernatant was collected and dialysed against PBS. After protein estimation, the solution was filtered sterilised and stored at −20° C. until needed.
A single cell suspension of cervical lymph node (CLN) cells was prepared by teasing lymph node tissue through a sieve. The cells were collected in RPMI 1640 medium supplemented with 10% foetal calf serum (FCS), washed twice by centrifugation and cultured at 4×10^6 cells per well in the presence of 2.5 μg/mL of Candida antigen in a 24-well plate for 3 days.
The culture supernatants were collected and assayed for IL-4, IL-12 and IFN-γ by ELISA using matched antibody pairs and recombinant cytokines as standards (Pharmingen, San Diego, Calif.). The sensitivity of the cytokine ELISA was […] and the results were expressed in net amounts from which the background was subtracted.
Samples of saliva were obtained according to the procedure described in example 2.

Salmonella typhimurium = experiment: Translocation of Salmonella typhimurium to spleen in mice fed L acidophilus (VRI 011) and given killed Salmonella vaccine; format: in vivo, BALB/c mice
Description: Female BALB/c mice 6-8 weeks old were obtained from the Animal Resource Centre, Perth, Wash. Lactobacillus acidophilus strain (VRI 011) and the pathogen Salmonella tyhimurium were obtained from the School of Microbiology and Immunology Type Culture Collection, University of New South Wales.
Mice were given 5 doses of L acidophilus (VRI 011) (1×10^8 cfu per dose) or PBS over a 2 week period after which time mice were immunised intragastrically with a killed oral Salmonella vaccine. Two weeks after immunisation, the mice were sacrificed and the spleens collected for enumeration of L acidophilus and S tyhimurium.

[4] = test system: Non-typeable Haemophilus influenzae (NTHi); experiment: Clearance of NTHi from lungs of rats given a single intraduodenal dose of L. fermentum; format: in vivo, dark agouti (DA) rats
Method: Groups of 6 male, specific pathogen free, dark agouti (DA) rats were given a single dose of PBS or live L. fermentum (2.5×10^10) directly into the duodenal lumen after exposure of the intestine by laparotomy. Twenty-one days later the rats were infected intratracheally with 5×10^8 live Non-typeable Haemophilus influenzae (NTHi). Four hours later the rats were killed by pentobarbitone overdose. The lungs were lavaged with 10 mL PBS to obtain broncho-alveolar lavage fluid (BAL). The lavaged lungs were then homogenised in 10 mL of PBS. Twenty microlitres of ten-fold serial dilutions of BAL and lung homogenate (LH) were plated on chocolate agar plates and incubated in a 10% CO2 incubator at 37° C. overnight. Colonies were counted and the number of live bacteria in the BAL and LH preparations determined. The recovery of live NTHi bacteria, presented as colony forming units (CFU), was as follows: […]

S typhimurium = experiment: Translocation of S typhimurium to spleen in mice fed L fermentum and vaccinated with killed oral Salmonella vaccine; format: in vivo, BALB/c mice; details: for S typhimurium in spleen (±SEM): live oral challenge
Method: BALB/c female mice (6-8 weeks old) were fed 10^8 L fermentum VRI012 (obtained from University of New South Wales, School of Microbiology and Immunology Culture Collection, Sydney, Australia) before or co-administered with 10^8 killed S typhimurium vaccine four times over a 2 week period. Two weeks after oral administration, the mice were challenged with live S typhimurium administered by the oral route. After sacrifice, the level of colonisation with S typhimurium in the spleen was determined.

## CC(=O)O.CNC(=N)NCCC[C@H](N)C(=O)O [MNLA, NG-monomethyl-L-arginine monoacetate]
C albicans
  clearance of yeasts compared with untreated mice: delayed clearance of yeasts

## Cc1ncc([N+](=O)[O-])n1CCO [Metronidazole, reference compound]
Helicobacter pylori
  H. pylori colonisation: 11.4 ± 2.5 ×10^5 CFU/animal
  % eradication: 55^b %
Helicobacter pylori; listed as metronidazole
  % eradication: 55%

## Lactobacillus acidophilus [L. acidophilus]
Helicobacter pylori
  H. pylori colonisation: 10.5 ± 1.4 ×10^5 CFU/animal
  % eradication: 58^a %
Helicobacter pylori; listed as probiotic
  % eradication: 58%
Candida albicans; all time points, FIG. 5
  resistance to C. albicans infection (oral mucosa CFU) compared to mice fed PBS: more resistant to infection at all time points
Candida albicans; day 6
  clearance of yeasts from oral cavity by day 6: almost completely cleared
H influenzae; bronchial lavage, 4 hrs post challenge with 5×10^8 live H influenzae
  BAL H influenzae: 0.7 ± 0.3 CFU/mL × 10^8
H influenzae; lung homogenate, 4 hrs post challenge with 5×10^8 live H influenzae
  LH H influenzae: 12.5 ± 5.7 CFU/mL × 10^6
H influenzae; rats fed L acidophilus and immunised with killed H influenzae
  resistance to H influenzae infection in the lungs: more resistance to infection
H influenzae; repeated oral feeding compared with a single bolus
  resistance to infection, repeated oral doses versus single bolus: more resistant to infection than rats given a single bolus
IFN-γ [1]
  production of IFN-γ: enhanced
IL-4
  IL-4 production: suppression of IL-4 production in dose-dependent manner
[2]; 5×10^9 by gavage on days 28-39 after infection, killed day 50
  Number of H. pylori in stomach homogenate: 105 ± 14 10^4 CFU
[2]; therapeutic dosing on pre-established infection
  level of H. pylori infection of the stomach versus control mice: lower level of H. pylori infection
NO; early after C. albicans challenge
  secretion of NO into saliva, early after challenge: increased
NO; later stage after C. albicans challenge
  secretion of NO into saliva, later stage: significantly reduced
IFN-γ [3]; fed mice challenged with C. albicans, controls no detectable IFN-γ until day 6
  onset of IFN-γ response after C. albicans challenge: early response (day 2)
IFN-γ [3]; fed mice, no C. albicans challenge, FIGS. 6 and 7
  IFN-γ response in uninfected mice: no IFN-γ response
IFN-γ [3]; still seen in nodes at day 15 and in saliva at day 8
  duration of IFN-γ response after C. albicans challenge versus controls not fed: more sustained IFN-γ response
Salmonella typhimurium; fed before or simultaneously with killed oral S typhimurium vaccine, live oral challenge
  protection against translocation of S typhimurium compared with mice fed PBS: better protection against translocation
Salmonella typhimurium; feeding in addition to killed oral vaccine
  effect of feeding on the vaccine-induced decrease of translocation: further enhanced

## Lactobacillus fermentum [L. fermentum]
[4]; lung homogenate, CFU, single dose 2.5×10^10 into duodenal lumen, challenge day 21, 4 hours
  LH, live NTHi recovered: 0.82 ± 0.37 p = 0.017* 10^6
[4]; single dose 2.5×10^10 into duodenal lumen, challenge day 21, 4 hours
  BAL CFU, live NTHi recovered: 0.49 ± 0.19 CFU (10^6)
[4]; single dose delivered to the gut
  clearance of acute NTHi respiratory infection: enhanced clearance
S typhimurium; 10^8 co-administered with 10^8 killed S typhimurium vaccine
  S typhimurium in spleen (±SEM): 4.5 ± 0.22 p < 0.05 vs Control Log CFU/g wet wt
S typhimurium; 10^8 fed before 10^8 killed S typhimurium vaccine
  S typhimurium in spleen (±SEM): 3.8 ± 0.12 p < 0.05 vs Control Log CFU/g wet wt
S typhimurium; fed prior to immunisation or co-administered with killed S typhimurium
  level of translocation compared with mice fed PBS: low levels of translocation
